Where two headings read alike, the source gives them in different places.
What was measured:
[1] = system: anesthetized rats (evoked responses of anterior tibial muscle); experiment: Muscle relaxant (neuromuscular blocking) properties, anesthetized rat (Example 9, Table 9); conditions: for Onset: time to 80-85% neuromuscular block
Description: (§1) The data on muscle relaxant action were obtained on anesthetized rats, and when indicated, also on juvenile pigs
(§2) Adult, male albino rats were anesthetized with pentobarbital injected intraperitoneally. Juvenile, Duroc pigs 9-12 kg body weight were anesthetized with Chloralose Nembutal sodium mixture intraperitoneally after deep sedation with inhaled halothane. The trachea was cannulated for artificial respiration via a small animal respirator. The carotid artery was cannulated for recording blood pressure via a transducer and heart rate by a cardiotachograph on a polygraph. One external jugular vein was cannulated for i.v. drug administration. Neuromuscular function was monitored by electromyography, recording evoked responses from the anterior tibial muscle as a result of supramaximal nerve stimuli consisting of single or “train-of-four” rectangular pulses of 0.1-0.2 msec duration every 10-12 seconds, delivered to the sciatic or common peroneal nerve by a laboratory nerve stimulator. Another mode of stimulation included repeated single stimuli delivered at 0.1 Hz or 1 Hz. […] The agents were dissolved in physiologic saline and injected intravenously at appropriate time intervals. The intensity, onset, and duration of neuromuscular block and its type were determined with each agent. Through administering several doses, the doses corresponding to 50%, 80% and 90% neuromuscular block were determined. All agents were compared with selected standard neuromuscular blocking compounds, e.g., rocuronium.
(§3) Onset=time in minutes to 80-85% neuromuscular block.
(§4) RI=recovery index, minutes, spontaneous recovery, 25-75% neuromuscular response.
(§5) VB=vagal block, %, at 80-85% neuromuscular blocking dose.
(§6) HR=change in heart rate, %, at 80-85% neuromuscular blocking dose.
(§7) BP=change in arterial blood pressure, %, at 80-85% neuromuscular blocking dose.

dogs = experiment: animal or person; assay type: in vivo; conditions: dog; for ED50: intravenous dose causing 50% neuromuscular block; for Onset: time to 80-85% neuromuscular block
rabbits = experiment: In vivo neuromuscular block and cardiovascular side effects, rabbit (Example 8, Table 7); conditions: for ED50: intravenous dose causing 50% neuromuscular block; for Onset: time to 80-85% neuromuscular block
[2] = system: anesthetized rats (evoked responses of anterior tibial muscle); experiment: In vivo neuromuscular block and cardiovascular side effects, anesthetized rat (Example 8, Table 3); conditions: for Onset: time to 80-85% neuromuscular block
Procedure, shortened: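 Pentobarbital-anesthetized (i.p.), ventilated adult male rats given saline-dissolved agents i.v.; anterior tibial EMG responses to supramaximal single or train-of-four sciatic/peroneal stimuli, plus 0.1 or 1 Hz stimulation. Doses for 50%, 80%, 90% block derived. Onset: minutes to 80-85% block; RI: 25-75% spontaneous recovery; vagal block, heart rate and blood pressure changes (%) at 80-85% blocking dose.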

[3] = system: anesthetized juvenile Duroc pigs; experiment: animal or person; conditions: for % VB at ED80 nmb (vagal block) / BP (change in arterial blood pressure) / HR (change in heart rate): in vivo; for RI (recovery index): spontaneous recovery, 25-75% neuromuscular response; for Onset: time to 80-85% neuromuscular block
Description: as §1, §2, §3, §4, §5, §6, §7

[4] = system: anesthetized cats (evoked responses of anterior tibial muscle); experiment: animal or person; conditions: for Onset: time to 80-85% neuromuscular block
Procedure, shortened: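 Adult cats anesthetized i.p. with 70 mg/kg alpha chloralose plus 0.5 g/kg ethylurethane; agents in saline given i.v. Anterior tibial muscle responses to supramaximal single or train-of-four stimuli of sciatic or peroneal nerve recorded electromyographically and mechanomyographically, alongside blood pressure and heart rate.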

anesthetized monkeys = experiment: In vivo neuromuscular block and cardiovascular side effects, monkey (Example 8, Table 6); conditions: for ED50: intravenous dose causing 50% neuromuscular block; for Onset: time to 80-85% neuromuscular block
Procedure, shortened: (§8)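 Electromyographic and mechanomyographic responses quantified. Monkeys sedated with intramuscular ketamine, then general anesthesia with intravenous pentobarbital and propofol; juvenile pigs induced with inhaled halothane.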

[5] = system: anesthetized juvenile pigs; experiment: animal or person; assay type: in vivo; conditions: pig; for ED50: intravenous dose causing 50% neuromuscular block; for Onset: time to 80-85% neuromuscular block
Procedure, shortened: as §8

[6] = Canis lupus familiaris, read-out: ED50
[7] = Oryctolagus cuniculus, read-out: ED50
[8] = at 80-85% neuromuscular blocking dose
[9] = spontaneous recovery, 25-75% neuromuscular response
[10] = rat, at 80-85% neuromuscular blocking dose
[11] = rat, spontaneous recovery, 25-75% neuromuscular response
[12] = cat, at 80-85% neuromuscular blocking dose
[13] = cat, spontaneous recovery, 25-75% neuromuscular response

## C=CC[N+]1([C@H]2C[C@H]3[C@@H]4CC[C@H]5C[C@H](O)[C@@H](N6CCOCC6)C[C@]5(C)[C@H]4CC[C@]3(C)[C@H]2OC(C)=O)CCCC1 [Rocuronium, reference compound]
[1]; Rattus norvegicus, iv
  ED50: 0.45 mg/kg
[1]; male, rat, in vivo
  % VB at ED80 nmb (vagal block): 60%
  BP (change in arterial blood pressure): 0%
  HR (change in heart rate): 0%
[1]; rat, in vivo
  RI (recovery index): 1.3 min
[1]; rat
  Onset: 0.95 min
dogs; [6]
  ED50: 0.076 mg/kg
dogs; in vivo
  RI (recovery index): 3.3 min
  ΔBP (change in arterial blood pressure): 0%
  ΔH (change in heart rate): 0%
dogs
  Onset: 1.9 min
rabbits; [7]
  ED50: 0.03 mg/kg
rabbits; in vivo
  RI (recovery index): 2.4 min
  ΔBP (change in arterial blood pressure): 0%
  ΔH (change in heart rate): 0%
rabbits
  Onset: 1.1 min
[2]; Rattus norvegicus, iv
  ED50: 0.45 mg/kg
[2]; male, rat, in vivo
  VB (vagal block): 60%
  ΔBP (change in arterial blood pressure): 0%
  ΔH (change in heart rate): 0%
[2]; rat, in vivo
  RI (recovery index): 1.3 min
[2]; rat
  Onset: 0.95 min
[3]; Duroc, pig
  % VB at ED80 nmb (vagal block): 47%
  BP (change in arterial blood pressure): 0%
  HR (change in heart rate): 0%
[3]; Sus scrofa, iv
  ED50: 0.35 mg/kg
[3]; pig
  RI (recovery index): 3.2 min
  Onset: 1.5 min
[4]; Felis catus, iv
  ED50: 0.185 mg/kg
[4]; cat, in vivo
  ΔBP (change in arterial blood pressure): 0%
  ΔH (change in heart rate): 0%
[4]; cat
  Onset: 2.1 min
[4]; in vivo
  RI (recovery index): 3.8 min
Anesthetized monkeys; Primates, read-out: ED50
  ED50: 0.013 mg/kg
Anesthetized monkeys; in vivo
  RI (recovery index): 5.6 min
  ΔBP (change in arterial blood pressure): 0%
  ΔH (change in heart rate): 0%
Anesthetized monkeys
  Onset: 3.5 min
[5]; Sus scrofa, read-out: ED50
  ED50: 0.35 mg/kg
[5]; in vivo
  RI (recovery index): 3.2 min
  VB (vagal block): 47%
  ΔBP (change in arterial blood pressure): 0%
  ΔH (change in heart rate): 0%
[5]
  Onset: 1.5 min

## COc1cc(C[N+]2(C)[C@@H]3CC[C@H]2C[C@@H](OC(=O)C2CCCC(C(=O)O[C@H]4C[C@H]5CC[C@@H](C4)[N+]5(C)Cc4ccc(OC(C)=O)c(OC)c4)C2)C3)ccc1OC(C)=O.[Br-].[Br-] (stereo partly drawn) [bis[N-(4-acetoxy-3-methoxybenzyl)tropanium-3α-yl]cyclohexane-1,3-dicarboxylate dibromide]
dogs; [6]
  ED50: 0.28 mg/kg
dogs; [8]
  ΔBP (change in arterial blood pressure): −25%
  ΔH (change in heart rate): 38%
dogs; [9]
  RI (recovery index): 0.5 min
dogs
  Onset: 0.75 min
rabbits; [7]
  ED50: 0.165 mg/kg
rabbits; [8]
  ΔBP (change in arterial blood pressure): 0%
  ΔH (change in heart rate): 0%
rabbits; [9]
  RI (recovery index): 0.65 min
rabbits
  Onset: 0.65 min
[2]; Rattus norvegicus, iv
  ED50: 0.27 mg/kg
[2]; [10]
  VB (vagal block): 30%
  ΔBP (change in arterial blood pressure): 0%
  ΔH (change in heart rate): 0%
[2]; [11]
  RI (recovery index): 0.45 min
[2]; rat
  Onset: 0.55 min
[4]; Felis catus, iv
  ED50: 0.325 mg/kg
[4]; [12]
  VB (vagal block): 33%
  ΔBP (change in arterial blood pressure): −5%
  ΔH (change in heart rate): 0%
[4]; [13]
  RI (recovery index): 0.5 min
[4]; cat
  Onset: 0.9 min
Anesthetized monkeys; Primates, read-out: ED50
  ED50: 0.1 mg/kg
Anesthetized monkeys; [8]
  ΔBP (change in arterial blood pressure): 0%
  ΔH (change in heart rate): 0%
Anesthetized monkeys; [9]
  RI (recovery index): 0.5 min
Anesthetized monkeys
  Onset: 0.9 min
[5]; Sus scrofa, read-out: ED50
  ED50: 0.183 mg/kg
[5]; [8]
  VB (vagal block): 65%
  ΔBP (change in arterial blood pressure): 0%
  ΔH (change in heart rate): 0%
[5]; [9]
  RI (recovery index): 0.75 min
[5]
  Onset: 0.6 min

## COc1cc(C[N+]2(C)C3CCC2CC(OC(=O)C2C4C=CC(C4)C2C(=O)OC2CC4CCC(C2)[N+]4(C)Cc2ccc(OC(C)=O)c(OC)c2)C3)ccc1OC(C)=O.[Br-].[Br-] (stereo not drawn) [bis[N-(4-acetoxy-3-methoxybenzyl)tropanium-3α-yl]trans-3,6-endomethylene-1,2,3,6-tetrahydrophthalate dibromide]
dogs; in vivo
  ΔBP (change in arterial blood pressure): −25%
  ΔH (change in heart rate): 40%
dogs
  ED50: 0.35 mg/kg
  Onset: 0.63 min
dogs; [9]
  RI (recovery index): 0.5 min
rabbits; in vivo
  ΔBP (change in arterial blood pressure): 0%
  ΔH (change in heart rate): 0%
rabbits
  ED50: 0.155 mg/kg
  Onset: 0.65 min
rabbits; [9]
  RI (recovery index): 0.65 min
[2]; [10]
  VB (vagal block): 25%
  ΔBP (change in arterial blood pressure): 0%
  ΔH (change in heart rate): 0%
[2]; rat, intravenous dose causing 50% neuromuscular block
  ED50: 0.15 mg/kg
[2]; [11]
  RI (recovery index): 0.5 min
[2]; rat
  Onset: 0.55 min
[4]; cat, intravenous dose causing 50% neuromuscular block
  ED50: 0.193 mg/kg
[4]; [13]
  RI (recovery index): 0.4 min
[4]; cat
  Onset: 0.7 min
[4]; in vivo
  VB (vagal block): 20%
  ΔBP (change in arterial blood pressure): 0%
  ΔH (change in heart rate): 5%
Anesthetized monkeys; in vivo
  ΔBP (change in arterial blood pressure): 0%
  ΔH (change in heart rate): 0%
Anesthetized monkeys
  ED50: 0.055 mg/kg
  Onset: 0.85 min
Anesthetized monkeys; [9]
  RI (recovery index): 0.5 min
[5]; in vivo
  VB (vagal block): 43%
  ΔBP (change in arterial blood pressure): 0%
  ΔH (change in heart rate): 0%
[5]
  ED50: 0.19 mg/kg
  Onset: 0.6 min
[5]; [9]
  RI (recovery index): 1 min

## Bis[N-(3,4-diacetoxybenzyl)-6-azabicyclo[3.2.1]octanium-3-yl]cyclohexane-1,3-dicarboxylate dibromide
[1]; rat, in vivo
  % VB at ED80 nmb (vagal block): 5 (2) %
  BP (change in arterial blood pressure): 0%
  HR (change in heart rate): 0%
[1]; rat, intravenous dose causing 50% neuromuscular block, spread in brackets
  ED50: 384 (42) μg/kg
[1]; [11]
  RI (recovery index): 0.5 (0.04) min
[1]; rat
  Onset: 0.7 (0.05) min
[3]; pig
  % VB at ED80 nmb (vagal block): 70%
  BP (change in arterial blood pressure): 0%
  HR (change in heart rate): 0%
  RI (recovery index): 0.85 min
  Onset: 0.5 min
[3]; pig, intravenous dose causing 50% neuromuscular block
  ED50: 0.78 mg/kg

— patent US6376510B1, “Neuromuscular relaxants” (Newlaxant LLC, priority 1997, dated 2002)
